Read-outs that look alike come from different tables or passages of the source.
How the values were obtained:
[1] = target: Mcl-1 (Homo sapiens, UniProt Q07820); experiment: direct-binding FP of BODIPY-TMR labeled analogs, Mcl-1; settings: Table 5, BODIPY-labeled analogues
[2] = target: T1, proteinase K (Parengyodontium album, UniProt P06873); experiment: proteinase K stability of Puma BH3 peptides
[3] = target: T2, Bcl-xL (Homo sapiens, UniProt Q07817); experiment: competition FP with fluorescently labeled Bak-BH3 peptide, Bcl-xL; assay type: binding
[4] = in vitro
[5] = target: T2, Bcl-xL; experiment: biochemical
[6] = test system: HIV-1 NL4-3; settings: read-out: Inhibition of HIV-1 infectivity, IC50 (nM), X4 strains, NL4-3; TZM-bl cells; mean ± S.E.M., three experiments
[7] = target: T3, NHR α-peptide 1 (Human immunodeficiency virus type 1 group M subtype B, UniProt P04578); experiment: CD thermal unfolding of 1:1 NHR + CHR peptide mixtures; assay type: physicochemical, HIV; settings: Table 2; CD at 222 nm, 1:1 mixture with NHR α-peptide 1, PBS, 20 μM total peptide
T3 construct: made in house; host or cells: chemical synthesis (Fmoc solid phase)
Protocol: The interactions of select α/β-peptides with the gp41 NHR domain were further investigated by circular dichroism (CD) spectroscopy. The CD spectra of 3, 4, 5, 8, 9 and were measured, both alone (see FIG. 5A) and in a 1:1 mixture with NHR α-peptide 1 (see FIGS. 3A, 3B, 3C, and 3D, respectively). See also FIGS. 5B and 5C for the superimposed spectra. […] The magnitude of the CD signatures among the well-folded mixtures (1+3, 1+5 and 1+10, FIGS. 3A, 3C, and 3D, respectively) are similar, but the ratio of intensities at 208 and 222 nm changes as a function of β-residue content (more β-residues tracks with a less intense peak at 222 nm).
The interactions of CHR α-peptide 3 and α/β-peptide analogues 4, 5, 8 and 10 with a peptide derived from the gp41 NHR domain (1) were investigated by circular dichroism (CD) spectroscopy. […] The magnitude of the CD signatures among the well-folded mixtures (1+3, 1+5, 1+8 and 1+10) are similar, but the ratio of intensities at 208 and 222 nm changes as a function of β-residue content (higher β-residue content is correlated with a less intense peak at 222 nm). This trend is consistent with previous studies on helical oligomers containing mixed α/β backbones.
Circular Dichroism Spectroscopy. Circular dichroism measurements were carried out on an Aviv 202SF Circular Dichroism Spectrophotometer. Samples of each peptide were prepared at 20 μM concentration in PBS. Solutions of 1:1 peptide mixtures were prepared by mixing equal volumes from the same 20 μM stock solutions used for individual peptide measurements. Spectra were recorded in a 1 mm cell with a step size of 1 nm and an averaging time of 5 sec. All spectra are background corrected against buffer measured in the same cell. Thermal melts were carried out in 5-degree increments with an equilibration time of 10 min between each temperature change. Thermal unfolding data were fit to a simple two state folding model Shortle, D.; Meeker, A. K.; Freire, E. Biochemistry 1988, 27, 4761-4768) using GraphPad Prism.

[8] = test system: HIV-1 CC 1/85; settings: read-out: Inhibition of HIV-1 infectivity, IC50 (nM), R5 strains, CC 1/85; TZM-bl cells; mean ± S.E.M., three experiments
[9] = test system: HIV-1 HC4; settings: read-out: Inhibition of HIV-1 infectivity, IC50 (nM), X4 strains, HC4; TZM-bl cells; mean ± S.E.M., three experiments
[10] = target: gp41-5 (Human immunodeficiency virus type 1 group M subtype B, UniProt P04578, C598G/DEL582-595/DEL601-626/T627G/W596S); experiment: biochemical; assay type: binding, HIV; settings: competition FP
[11] = test system: HIV-1 DJ258; settings: read-out: Inhibition of HIV-1 infectivity, IC50 (nM), R5 strains, DJ258; TZM-bl cells; mean ± S.E.M., three experiments
[12] = target: T4, envelope glycoprotein of the HIV-1 clone HXB2 (Human immunodeficiency virus type 1 group M subtype B, UniProt P04578); experiment: cell-cell fusion assay; assay type: cell-based
T4 construct: One cell line expresses HIV-1 Env (processed by cellular proteases to generate gp120+gp41); expressed in transfected cells; host or cells: CHO cells expressing HXB2 env (and Tat); U373-MAGI target cells

[13] = test system: HIV; settings: background; read-out: anti-HIV IC50 in cell-based assays; cited from earlier work
[14] = target: T1, proteinase K; experiment: in vitro; settings: proteinase K solution in TBS
[15] = target: T1, proteinase K; settings: under the assay conditions
[16] = Table 4, read-out: gp41-5 binding affinity by FP Ki

T1 sequence (P06873 106-384): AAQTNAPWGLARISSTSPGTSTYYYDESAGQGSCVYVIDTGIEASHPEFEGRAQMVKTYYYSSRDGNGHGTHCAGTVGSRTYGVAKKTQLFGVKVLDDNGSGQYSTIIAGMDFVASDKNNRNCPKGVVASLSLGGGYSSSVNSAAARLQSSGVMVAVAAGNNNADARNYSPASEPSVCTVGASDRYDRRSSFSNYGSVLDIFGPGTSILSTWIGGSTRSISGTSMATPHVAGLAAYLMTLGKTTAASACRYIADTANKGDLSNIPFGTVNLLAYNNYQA
T2 sequence (Q07817 whole entry, species assumed): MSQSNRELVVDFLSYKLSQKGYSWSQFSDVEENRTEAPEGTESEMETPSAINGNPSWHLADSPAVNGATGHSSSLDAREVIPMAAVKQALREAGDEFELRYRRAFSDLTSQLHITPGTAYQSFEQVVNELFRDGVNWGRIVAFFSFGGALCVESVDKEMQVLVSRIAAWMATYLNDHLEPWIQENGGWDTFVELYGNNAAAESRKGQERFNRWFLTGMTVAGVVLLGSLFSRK
Sequence of Mcl-1 (Q07820 whole entry, species assumed): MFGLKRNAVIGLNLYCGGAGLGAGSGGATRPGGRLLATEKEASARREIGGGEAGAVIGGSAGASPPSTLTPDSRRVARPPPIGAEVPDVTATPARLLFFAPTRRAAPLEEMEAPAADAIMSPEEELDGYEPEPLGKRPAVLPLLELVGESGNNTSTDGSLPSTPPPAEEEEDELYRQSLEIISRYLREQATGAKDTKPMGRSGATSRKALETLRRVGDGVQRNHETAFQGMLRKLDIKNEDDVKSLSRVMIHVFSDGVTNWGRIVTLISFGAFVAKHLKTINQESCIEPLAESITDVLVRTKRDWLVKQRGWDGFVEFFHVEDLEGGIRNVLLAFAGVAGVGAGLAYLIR

Compound | Kd [1] | half-life at 50 μm [2] | Ki [3] | half-life at 50 μm [4] | Kd [5] | IC50 [6] | NHR + CHR Tm (° C.) [7] | IC50 [8] | IC50 [9] | Ki ([10]; Table 2, read-out: gp41-5 Ki) | Ki [10, 16] | IC50 [11] | IC50 [12] | IC50 [13] | half-life at 20 μM ([14]; Tritirachium album (source organism of proteinase K)) | half-life at 20 μM [14] | Ki ([10]; read-out: Ki for gp41-5) | degradation by proteinase K [15]
CC[C@H](C)[C@H](NC(=O)[C@H](CCC(=O)O)NC(=O)C[C@H](CCCNC(=N)N)NC(=O)[C@H](C)NC(=O)[C@H](Cc1c[nH]c2ccccc12)NC(=O)C[C@H](CCC(N)=O)NC(=O)[C@H](CCC(=O)O)NC(=O)[C@H](CCC(=O)O)NC(C)=O)C(=O)NCC(=O)N[C@@H](C)CC(=O)N[C@@H](CCC(N)=O)C(=O)N[C@@H](CC(C)C)C(=O)N[C@@H](CCCNC(=N)N)CC(=O)N[C@@H](CCCNC(=N)N)C(=O)N[C@@H](CCSC)C(=O)N[C@@H](C)C(=O)N[C@@H](CC(=O)O)CC(=O)N[C@@H](CC(=O)O)C(=O)N[C@@H](CC(C)C)C(=O)N[C@@H](CC(N)=O)CC(=O)N[C@@H](C)C(=O)N[C@@H](CCC(N)=O)C(=O)N[C@@H](Cc1ccc(O)cc1)C(=O)N[C@@H](CCC(=O)O)CC(=O)N[C@@H](CCCNC(=N)N)C(=O)N[C@@H](CCCNC(=N)N)C(N)=O [2′] | 110 nM | > 50 h | < 1 nM | 100 min | 2.2 nM |  |  |  |  |  |  |  |  |  |  |  |  | 
CC[C@H](C)[C@H](NC(=O)[C@H](C)NC(=O)[C@H](CCCNC(=N)N)NC(=O)[C@H](CC(=O)O)NC(=O)[C@H](Cc1c[nH]c2ccccc12)NC(=O)[C@H](C)NC(=O)[C@H](CCC(=O)O)NC(=O)[C@H](Cc1c[nH]c2ccccc12)NC(=O)[C@@H](NC(=O)[C@@H](NC(C)=O)[C@@H](C)O)[C@@H](C)O)C(=O)N[C@@H](C)C(=O)N[C@@H](CCC(=O)O)C(=O)N[C@@H](Cc1ccc(O)cc1)C(=O)N[C@@H](C)C(=O)N[C@@H](C)C(=O)N[C@@H](CCCNC(=N)N)C(=O)N[C@H](C(=O)N[C@@H](CCC(=O)O)C(=O)N[C@@H](C)C(=O)N[C@@H](CC(C)C)C(=O)N[C@H](C(=O)N[C@@H](CCCNC(=N)N)CC(=O)N[C@@H](C)C(=O)N[C@@H](C)C(=O)N[C@@H](CCC(N)=O)C(=O)N[C@@H](CCC(=O)O)CC(=O)N[C@@H](CCC(N)=O)C(=O)N[C@@H](CCC(N)=O)C(=O)N[C@@H](CCC(=O)O)CC(=O)N[C@@H](CCCCN)C(=O)N[C@@H](CC(N)=O)C(=O)N[C@@H](CCC(=O)O)C(=O)N[C@@H](C)CC(=O)N[C@@H](C)C(=O)N[C@@H](CC(C)C)C(=O)N[C@@H](CCCNC(=N)N)CC(=O)N[C@@H](CCC(=O)O)C(=O)N[C@@H](CC(C)C)C(N)=O)[C@@H](C)CC)[C@@H](C)CC [compound 5] |  |  |  |  |  | 10 ± 2 nM | 69 °C | 270 ± 20 nM | 55 ± 8 nM | 0.2 nM | < 0.2 nM | 280 ± 90 nM | 7 ± 2 nM |  |  |  |  | 
enfuvirtide |  |  |  |  |  | 700 ± 100 nM |  | 1400 ± 400 nM | 250 ± 20 nM |  |  | 330 ± 60 nM |  | ~1 nM |  |  |  | 
CC[C@H](C)[C@H](NC(=O)C[C@H](CCC(=O)O)NC(=O)[C@H](CCCNC(=N)N)NC(=O)[C@H](C)NC(=O)[C@H](Cc1c[nH]c2ccccc12)NC(=O)C[C@H](CCC(N)=O)NC(=O)[C@H](CCC(=O)O)NC(=O)[C@H](CCC(=O)O)NC(C)=O)C(=O)NCC(=O)N[C@@H](C)CC(=O)N[C@@H](CCC(N)=O)C(=O)N[C@@H](CC(C)C)C(=O)N[C@@H](CCCNC(=N)N)C(=O)N[C@@H](CCCNC(=N)N)CC(=O)N[C@@H](CCSC)C(=O)N[C@@H](C)C(=O)N[C@@H](CC(=O)O)CC(=O)N[C@@H](CC(=O)O)C(=O)N[C@@H](CC(C)C)C(=O)N[C@@H](CC(N)=O)C(=O)N[C@@H](C)CC(=O)N[C@@H](CCC(N)=O)C(=O)N[C@@H](Cc1ccc(O)cc1)C(=O)N[C@@H](CCC(=O)O)CC(=O)N[C@@H](CCCNC(=N)N)C(=O)N[C@@H](CCCNC(=N)N)C(N)=O [3′] |  | 2.83 h |  | 3.5 min |  |  |  |  |  |  |  |  |  |  |  |  |  | 
CC[C@H](C)[C@H](NC(=O)[C@H](C)NC(=O)[C@H](CCCNC(=N)N)NC(=O)[C@H](CC(=O)O)NC(=O)[C@H](Cc1c[nH]c2ccccc12)NC(=O)[C@H](C)NC(=O)[C@H](CCC(=O)O)NC(=O)[C@H](Cc1c[nH]c2ccccc12)NC(=O)[C@@H](NC(=O)[C@@H](NC(C)=O)[C@@H](C)O)[C@@H](C)O)C(=O)N[C@@H](C)C(=O)N[C@@H](CCC(=O)O)C(=O)N[C@@H](Cc1ccc(O)cc1)C(=O)N[C@@H](C)C(=O)N[C@@H](C)C(=O)N[C@@H](CCCNC(=N)N)C(=O)N[C@H](C(=O)N[C@@H](CCC(=O)O)C(=O)N[C@@H](C)C(=O)N[C@@H](CC(C)C)C(=O)N[C@H](C(=O)N[C@@H](CCCNC(=N)N)C(=O)N[C@@H](C)C(=O)N[C@@H](C)C(=O)N[C@@H](CCC(N)=O)C(=O)N[C@@H](CCC(=O)O)C(=O)N[C@@H](CCC(N)=O)C(=O)N[C@@H](CCC(N)=O)C(=O)N[C@@H](CCC(=O)O)C(=O)N[C@@H](CCCCN)C(=O)N[C@@H](CC(N)=O)C(=O)N[C@@H](CCC(=O)O)C(=O)N[C@@H](C)C(=O)N[C@@H](C)C(=O)N[C@@H](CC(C)C)C(=O)N[C@@H](CCCNC(=N)N)C(=O)N[C@@H](CCC(=O)O)C(=O)N[C@@H](CC(C)C)C(N)=O)[C@@H](C)CC)[C@@H](C)CC [compound 3, reference compound] |  |  |  |  |  | 5 ± 0.6 nM | 77 °C | 140 ± 20 nM | 27 ± 4 nM | ≤ 0.2 nM | < 0.2 nM | 58 ± 6 nM | 9 ± 3 nM |  | 0.7 min | 0.7 min | < 0.2 nM | completely degraded within minutes
